According to patent US20170158735A1, “METHOD FOR PRODUCING A RECOMBINANT PEPTIDE AND RESULTANT PEPTIDE” ("IVIX" Ltd., priority 2012, published 2017):
Ends that are not written are not given here.

Test system: sexual behavior of female rats
Test: Lordosis test: sexual behavior of ovariectomized hormonally stimulated female rats with a sexually active male
Assay type: in vivo, rat
Conditions: for Percentage of lordoses / Number of acts of proceptive behavior: ovariectomized hormonally stimulated female rats, progesterone 0.5 mg/rat, test product 100 μg/rat; for Percentage of lordoses: negative control 0.73 ± 0.12; for Effect on sexual motivation / reproductive- and sexual-function stimulating activity (in words): lordosis model, female rats, 100 μg/rat; for Number of acts of proceptive behavior: negative control 14 ± 4
Method: Sexual behavior was recorded in ovariectomized hormonally stimulated females in direct contact with the sexually active male, or when such a contact was impossible. […]
Sexual behavior was recorded in ovariectomized hormonally stimulated females in direct contact with the sexually active male, or when such a contact was impossible.

TKPRPF
Percentage of lordoses (Table 5 / Example 9): 0.94 ± 0.14 | Effect on sexual motivation / reproductive- and sexual-function stimulating activity (in words): intensification of sexual motivation

Arg-Pro-Gly-Pro (RPGP)
Percentage of lordoses (Table 4 / Example 8): 0.69 ± 0.14 | Number of acts of proceptive behavior (Table 4 / Example 8): 15 ± 4 acts

Thr-Lys-Pro-Phe (TKPF)
Effect on sexual motivation / reproductive- and sexual-function stimulating activity (in words): lack of sexual motivation effect

Thr-Lys-Pro (TKP)
Percentage of lordoses (Table 4 / Example 8): 0.97±0.12 | Number of acts of proceptive behavior (Table 4 / Example 8): 29±6 acts | Percentage of lordoses (Table 5 / Example 9): 0.96 ± 0.12 | Effect on sexual motivation / reproductive- and sexual-function stimulating activity (in words): intensification of sexual motivation

Pro-Gly-Pro (PGP)
Percentage of lordoses (Table 4 / Example 8): 0.74 ± 0.09 | Number of acts of proceptive behavior (Table 4 / Example 8): 13 ± 5 acts

Pro-Arg-Pro-Gly-Pro (PRPGP)
Percentage of lordoses (Table 4 / Example 8): 0.73 ± 0.14 | Number of acts of proceptive behavior (Table 4 / Example 8): 14 ± 6 acts

Thr-Lys-Pro-Arg-Pro (TKPRP)
Percentage of lordoses (Table 5 / Example 9): 0.99 ± 0.09 | Effect on sexual motivation / reproductive- and sexual-function stimulating activity (in words): intensification of sexual motivation

Thr-Lys-Pro-Arg (TKPR)
Effect on sexual motivation / reproductive- and sexual-function stimulating activity (in words): lack of sexual motivation effect
